From patent US20260041679A1, “METHOD OF TREATING HYPERTENSION WITH THE ALDOSTERONE SYNTHASE INHIBITOR BAXDROSTAT” (CINCOR PHARMA, INC., priority 2022, published 2026)

System: patients with uHTN
Experiment: Study 124 Part 2: 2 mg baxdrostat monotherapy for 4 weeks, SBP and safety
Assay type: in vivo, human
Conditions: for AESI, % / AESI, e - Number of events / AESI, n - Number of subjects / SAEs, % / SAEs, e - Number of events / SAEs, n - Number of subjects / TEAEs Drug-Related, % / TEAEs Drug-Related, e - Number of events / TEAEs Drug-Related, n - Number of subjects / TEAEs Leading to death, % / TEAEs Leading to death, e - Number of events / TEAEs Leading to death, n - Number of subjects / TEAEs Leading to dosing discontinuation, % / TEAEs Leading to dosing discontinuation, e - Number of events / TEAEs Leading to dosing discontinuation, n - Number of subjects / TEAEs Leading to study discontinuation, % / TEAEs Leading to study discontinuation, e - Number of events / TEAEs Leading to study discontinuation, n - Number of subjects / TEAEs, % / TEAEs, e - Number of events / TEAEs, n - Number of subjects: Part 2
Method: Study 124 is a double-blind, placebo-controlled, dose range finding, multicenter study conducted in patients with uHTN receiving background antihypertensive agent(s) that are either an ACEI or an ARB, an ACEI/ARB plus a thiazide diuretic, or an ACEI/ARB plus a calcium channel blocker. The study consists of two parts: Part 1 consists of an 8-week treatment period in which the patients are to be assigned to one of 4 dose groups in equal ratio testing 0.5 mg, 1 mg, and 2 mg baxdrostat effects compared to a placebo. Patients are to administer double-blind baxdrostat tablets once per day while they continue taking the background antihypertensive medications. After 8 weeks of double-blind treatment, patients were to enter part 2 of the study unless the patient was assigned to the 2 mg group and the SBP remains ≥130 mmHg. In part 2 of the study, all patients are to cease dosing with background antihypertensive medication and take only baxdrostat 2 mg dose as a monotherapy for 4 weeks.
The secondary objectives are to evaluate the change from baseline in mean seated DBP with each of the selected dose strengths of baxdrostat compared to placebo after 8 weeks of treatment (Part 1), the change from baseline in 24-hour urine aldosterone and serum aldosterone levels with each of the selected dose strengths of baxdrostat compared to placebo after 8 weeks of treatment (Part 1), the percentage of patients achieving a mean seated SBP<130 mmHg (“responders”) with each of the selected dose strengths of baxdrostat compared to placebo after 8 weeks; and the change from baseline in 24-hour urine renin and serum renin levels with baxdrostat compared to placebo after 8 weeks of treatment. Patients who have completed the Part 2 study through Week 12 or who were considered withdrawn at the end of Part 1 may be eligible to enter a separate open label extension study (Study 130). Part 2 is an exploratory phase of the trial designed to evaluate the effect of 4 weeks of monotherapy with 2 mg baxdrostat in this hypertensive population, but the major goal of the Part 2 period is to transition patients to a long-term open label safety extension study of baxdrostat at the highest dose likely to be used in the hypertension population.
In Part 2, background antihypertensive therapy was discontinued following Part 1, and patients took two mg Baxdrostat for four additional weeks. […] There were two cases of moderate hyperkalemia with K+>/=6.0 mEq/L in the 213 patients in Part 2; both patients had stopped diuretic at the start of Part 2 and developed transient moderate hyperkalemia within 2 weeks.

CCC(=O)N[C@@H]1CCCc2c(-c3ccc4c(c3)CCC(=O)N4C)cncc21 [baxdrostat, (R)—N-(4-(1-methyl-2-oxo-1,2,3,4-tetrahydroquinolin-6-yl)-5,6,7,8-tetrahydroisoquinolin-8-yl) propionamide]
SBP between the start and the end of the four weeks (2 mg only, after withdrawal of background medication): remained stable
safety and tolerability (2 mg, 213 patients who entered Part 2): safe and well-tolerated
cases of moderate hyperkalemia with K+ >/=6.0 mEq/L (213 patients in Part 2): two cases
treatment emergent SAEs (Part 2, 2 mg): 4 events/3 patients with none deemed related to baxdrostat
AESI, % (0.5 mg to 2 mg, n = 63): 0%
AESI, e - Number of events (0.5 mg to 2 mg, n = 63): 0
AESI, n - Number of subjects (0.5 mg to 2 mg, n = 63): 0
SAEs, % (0.5 mg to 2 mg, n = 63): 0.0%
SAEs, e - Number of events (0.5 mg to 2 mg, n = 63): 0
SAEs, n - Number of subjects (0.5 mg to 2 mg, n = 63): 0
TEAEs Drug-Related, % (0.5 mg to 2 mg, n = 63): 5.6%
TEAEs Drug-Related, e - Number of events (0.5 mg to 2 mg, n = 63): 4
TEAEs Drug-Related, n - Number of subjects (0.5 mg to 2 mg, n = 63): 3
TEAEs Leading to death, % (0.5 mg to 2 mg, n = 63): 0.0%
TEAEs Leading to death, e - Number of events (0.5 mg to 2 mg, n = 63): 0
TEAEs Leading to death, n - Number of subjects (0.5 mg to 2 mg, n = 63): 0
TEAEs Leading to dosing discontinuation, % (0.5 mg to 2 mg, n = 63): 0%
TEAEs Leading to dosing discontinuation, e - Number of events (0.5 mg to 2 mg, n = 63): 0
TEAEs Leading to dosing discontinuation, n - Number of subjects (0.5 mg to 2 mg, n = 63): 0
TEAEs Leading to study discontinuation, % (0.5 mg to 2 mg, n = 63): 0.0%
TEAEs Leading to study discontinuation, e - Number of events (0.5 mg to 2 mg, n = 63): 0
TEAEs Leading to study discontinuation, n - Number of subjects (0.5 mg to 2 mg, n = 63): 0
TEAEs, % (0.5 mg to 2 mg, n = 63): 16.7%
TEAEs, e - Number of events (0.5 mg to 2 mg, n = 63): 15
TEAEs, n - Number of subjects (0.5 mg to 2 mg, n = 63): 9
AESI, % (1 mg to 2 mg, n = 62): 1.8%
AESI, e - Number of events (1 mg to 2 mg, n = 62): 1
AESI, n - Number of subjects (1 mg to 2 mg, n = 62): 1
SAEs, % (1 mg to 2 mg, n = 62): 1.8%
SAEs, e - Number of events (1 mg to 2 mg, n = 62): 2
SAEs, n - Number of subjects (1 mg to 2 mg, n = 62): 1
TEAEs Drug-Related, % (1 mg to 2 mg, n = 62): 8.8%
TEAEs Drug-Related, e - Number of events (1 mg to 2 mg, n = 62): 6
TEAEs Drug-Related, n - Number of subjects (1 mg to 2 mg, n = 62): 5
TEAEs Leading to death, % (1 mg to 2 mg, n = 62): 0.0%
TEAEs Leading to death, e - Number of events (1 mg to 2 mg, n = 62): 0
TEAEs Leading to death, n - Number of subjects (1 mg to 2 mg, n = 62): 0
TEAEs Leading to dosing discontinuation, % (1 mg to 2 mg, n = 62): 3.5%
TEAEs Leading to dosing discontinuation, e - Number of events (1 mg to 2 mg, n = 62): 3
TEAEs Leading to dosing discontinuation, n - Number of subjects (1 mg to 2 mg, n = 62): 2
TEAEs Leading to study discontinuation, % (1 mg to 2 mg, n = 62): 0.0%
TEAEs Leading to study discontinuation, e - Number of events (1 mg to 2 mg, n = 62): 0
TEAEs Leading to study discontinuation, n - Number of subjects (1 mg to 2 mg, n = 62): 0
TEAEs, % (1 mg to 2 mg, n = 62): 21.1%
TEAEs, e - Number of events (1 mg to 2 mg, n = 62): 26
TEAEs, n - Number of subjects (1 mg to 2 mg, n = 62): 12
AESI, % (2 mg, n = 60): 2.4%
AESI, e - Number of events (2 mg, n = 60): 1
AESI, n - Number of subjects (2 mg, n = 60): 1
SAEs, % (2 mg, n = 60): 0%
SAEs, e - Number of events (2 mg, n = 60): 0
SAEs, n - Number of subjects (2 mg, n = 60): 0
TEAEs Drug-Related, % (2 mg, n = 60): 0%
TEAEs Drug-Related, e - Number of events (2 mg, n = 60): 0
TEAEs Drug-Related, n - Number of subjects (2 mg, n = 60): 0
TEAEs Leading to death, % (2 mg, n = 60): 0.0%
TEAEs Leading to death, e - Number of events (2 mg, n = 60): 0
TEAEs Leading to death, n - Number of subjects (2 mg, n = 60): 0
TEAEs Leading to dosing discontinuation, % (2 mg, n = 60): 0%
TEAEs Leading to dosing discontinuation, e - Number of events (2 mg, n = 60): 0
TEAEs Leading to dosing discontinuation, n - Number of subjects (2 mg, n = 60): 0
TEAEs Leading to study discontinuation, % (2 mg, n = 60): 0.0%
TEAEs Leading to study discontinuation, e - Number of events (2 mg, n = 60): 0
TEAEs Leading to study discontinuation, n - Number of subjects (2 mg, n = 60): 0
TEAEs, % (2 mg, n = 60): 16.7%
TEAEs, e - Number of events (2 mg, n = 60): 9
TEAEs, n - Number of subjects (2 mg, n = 60): 7
AESI, % (Placebo to 2 mg, n = 64): 1.7%
AESI, e - Number of events (Placebo to 2 mg, n = 64): 2
AESI, n - Number of subjects (Placebo to 2 mg, n = 64): 1
SAEs, % (Placebo to 2 mg, n = 64): 3.3%
SAEs, e - Number of events (Placebo to 2 mg, n = 64): 2
SAEs, n - Number of subjects (Placebo to 2 mg, n = 64): 2
TEAEs Drug-Related, % (Placebo to 2 mg, n = 64): 5.0%
TEAEs Drug-Related, e - Number of events (Placebo to 2 mg, n = 64): 5
TEAEs Drug-Related, n - Number of subjects (Placebo to 2 mg, n = 64): 3
TEAEs Leading to death, % (Placebo to 2 mg, n = 64): 0.0%
TEAEs Leading to death, e - Number of events (Placebo to 2 mg, n = 64): 0
TEAEs Leading to death, n - Number of subjects (Placebo to 2 mg, n = 64): 0
TEAEs Leading to dosing discontinuation, % (Placebo to 2 mg, n = 64): 0%
TEAEs Leading to dosing discontinuation, e - Number of events (Placebo to 2 mg, n = 64): 0
TEAEs Leading to dosing discontinuation, n - Number of subjects (Placebo to 2 mg, n = 64): 0
TEAEs Leading to study discontinuation, % (Placebo to 2 mg, n = 64): 0.0%
TEAEs Leading to study discontinuation, e - Number of events (Placebo to 2 mg, n = 64): 0
TEAEs Leading to study discontinuation, n - Number of subjects (Placebo to 2 mg, n = 64): 0
TEAEs, % (Placebo to 2 mg, n = 64): 21.7%
TEAEs, e - Number of events (Placebo to 2 mg, n = 64): 24
TEAEs, n - Number of subjects (Placebo to 2 mg, n = 64): 13
AESI, % (Total, n = 249): 1.4%
AESI, e - Number of events (Total, n = 249): 4
AESI, n - Number of subjects (Total, n = 249): 3
SAEs, % (Total, n = 249): 1.4%
SAEs, e - Number of events (Total, n = 249): 4
SAEs, n - Number of subjects (Total, n = 249): 3
TEAEs Drug-Related, % (Total, n = 249): 5.2%
TEAEs Drug-Related, e - Number of events (Total, n = 249): 15
TEAEs Drug-Related, n - Number of subjects (Total, n = 249): 11
TEAEs Leading to death, % (Total, n = 249): 0.0%
TEAEs Leading to death, e - Number of events (Total, n = 249): 0
TEAEs Leading to death, n - Number of subjects (Total, n = 249): 0
TEAEs Leading to dosing discontinuation, % (Total, n = 249): 0.9%
TEAEs Leading to dosing discontinuation, e - Number of events (Total, n = 249): 3
TEAEs Leading to dosing discontinuation, n - Number of subjects (Total, n = 249): 2
TEAEs Leading to study discontinuation, % (Total, n = 249): 0.0%
TEAEs Leading to study discontinuation, e - Number of events (Total, n = 249): 0
TEAEs Leading to study discontinuation, n - Number of subjects (Total, n = 249): 0
TEAEs, % (Total, n = 249): 19.2%
TEAEs, e - Number of events (Total, n = 249): 74
TEAEs, n - Number of subjects (Total, n = 249): 41
